Data on 31 compounds can be found in US20170349532A1, “CATIONIC LIPID” (Kyowa Hakko Kirin Co., Ltd., priority 2011, published 2017).

Molecules are shown by their SMILES.

A short description of this data set: Average particle diameter of preparation (Zetasizer Nano ZS). The data set is classed as physicochemical. Conditions: average particle diameter of cationic lipid/nucleic acid complex; Example 118 preparation: compound/PEG-DMPE Na/DSPC/cholesterol with apo-b siRNA. The source says: Preparations were produced using the compounds obtained in Examples 1 to 117, as follows.
APO-B siRNA was used as the nucleic acid. APO-B siRNA suppresses expression of an apolipoprotein-B (hereinafter, “apo-b”) gene and has a sense strand with the base sequence 5′-GmUCAmUCACACmUGAAmUACCAAmU-3′ (the sugars attached to the bases appended with m are 2′-O-methyl-substituted riboses), and an antisense strand with the base sequence 5′-[…]-3′ (the 5′-end is phosphorylated). The sense strand and the antisense strand were obtained from Nippon EGT, GeneDesign, Inc., Invitrogen or Hokkaido System Science Co., Ltd., and annealed to prepare the nucleic acid (hereinafter, “apo-b siRNA”).
A solution comprising the constituent components was prepared by dissolving each of the weighed samples in 90 vol % ethanol in 8.947/1.059/5.708/13.697 mmol/L [compounds 1 to 117 obtained in Examples 1 to 117/sodium 1,2-dimyristoyl-sn-glycero-3-phosphoethanolamine-N-(methoxy(polyethylene glycol)-2000) (PEG-DMPE Na,N-(carbonylmethoxypolyethylene glycol 2000)-1,2-dimyristoyl-sn-glycero-3-phosphoethanolamine sodium salt, NOF Corporation)/distearoylphosphatidyl choline (DSPC, 1,2-distearoyl-sn-glycero-3-phosphocholine, NOF Corporation)/cholesterol (Avanti Polar Lipids)]. Separately, apo-b siRNA/distilled water (24 mg/mL) was diluted with a Tris-EDTA buffer (200 mM Tris-HCl, 20 mM EDTA, Invitrogen) and a 20 mM citric acid buffer (pH 5.0) to prepare a 1.5 mg/mL apo-b siRNA aqueous solution (2 mM Tris-EDTA/20 mM citric acid buffer, pH 5.0).
The resulting lipid solution was heated to 37° C., and a 100-μL portion was transferred to a preparation container. The apo-b siRNA aqueous solution (100 μL) was then added thereto while being stirred. Then, a 20 mM citric acid buffer (containing 300 mM NaCl, pH 6.0; 200 μL) was added to the lipid nucleic acid mixed suspension (200 μL) while being stirred. The siRNA concentration was brought to 10 μM by dropping a Dulbecco phosphate buffer (DPBS, Invitrogen; 662 μL), and preparations (compositions comprising compounds 1 to 117 and the nucleic acid) were obtained.
The average particle diameter of the complex between the cationic lipis and the nucleic acid in each preparation was measured with a particle diameter measurement device (Malvern; Zetasizer Nano ZS).
Turning to `CCCCC/C=C\C/C=C\CCCCCCCCO[C@@H]1CN(C)C[C@H]1OCCCCCCCC/C=C\C/C=C\CCCCC` [Compound 10, (3R,4R)-1-Methyl-3,4-bis((9Z,12Z)-octadec-9,12-dienyloxy)pyrrolidine], the “Particle diameter of Preparetion” value is 153.9 nm.
Turning to `CCCCC/C=C\C/C=C\CCCCCCCCO[C@H]1CN(C)C[C@H]1OCCCCCCCC/C=C\C/C=C\CCCCC` [Compound 11, (3R,4S)-1-Methyl-3,4-bis((9Z,12Z)-octadec-9,12-dienyloxy)pyrrolidine], the “Particle diameter of Preparetion” value worked out at 135.8 nm.
With `CCCCCCCC/C=C\CCCCCCCCO[C@@H]1CN(C)C[C@H]1OCCCCCCCC/C=C\CCCCCCCC` [Compound 12, (3R,4R)-1-Methyl-3,4-bis((Z)-octadec-9-enyloxy)pyrrolidine] the figure was 161.3 nm.
Take `CCCCCCCCCCCCCCO[C@@H]1CN(C)C[C@H]1OCCCCCCCCCCCCCC` [Compound 13, (3R,4R)-1-Methyl-3,4-bis(tetradecyloxy)pyrrolidine]: the “Particle diameter of Preparetion” value is recorded as 150.2 nm.
On to `CCCCCC/C=C\CCCCCCCCO[C@@H]1CN(C)C[C@H]1OCCCCCCCC/C=C\CCCCCC` [Compound 14, (3R,4R)-3,4-bis((Z)-Hexadec-9-enyloxy)-1-methylpyrrolidine], for which the “Particle diameter of Preparetion” value came to 139.3 nm.
For the compound `CCCCCCCCCCC/C=C\CCCCCO[C@@H]1CN(C)C[C@H]1OCCCCC/C=C\CCCCCCCCCCC` [Compound 15, (3R,4R)-1-Methyl-3,4-bis((Z)-octadec-6-enyloxy)pyrrolidine], the “Particle diameter of Preparetion” value was found to be 139.1 nm.
With `CCCCC/C=C\C/C=C\CCCCCCCCCCO[C@@H]1CN(C)C[C@H]1OCCCCCCCCCC/C=C\C/C=C\CCCCC` [Compound 16, (3R,4R)-3,4-bis((11Z,14Z)-Icos-11,14-dienyloxy)-1-methylpyrrolidine] the figure was 143.2 nm; with `CCCCC/C=C\C/C=C\CCCCCCCCO[C@@H]1CN(CC)C[C@H]1OCCCCCCCC/C=C\C/C=C\CCCCC` [Compound 17, (3R,4R)-1-Ethyl-3,4-bis((9Z,12Z)-octadec-9,12-dienyloxy)pyrrolidine], 142.6 nm; with `CCCCCCCC/C=C\CCCCCCCCO[C@@H]1CN(CC)C[C@H]1OCCCCCCCC/C=C\CCCCCCCC` [Compound 18, (3R,4R)-1-Ethyl-3,4-bis((Z)-octadec-9-enyloxy)pyrrolidine], 146.4 nm.
Under `CCCCC/C=C\C/C=C\CCCCCCCC(=O)O[C@@H]1C[N+](C)(C)C[C@H]1OC(=O)CCCCCCC/C=C\C/C=C\CCCCC.[Cl-]` [Compound 20, (3R,4R)-1,1-Dimethyl-3,4-bis((9Z,12Z)-octadec-9,12-dienoyloxy)pyrrolidinium chloride] stands 107.5 nm; under `CCCCC/C=C\C/C=C\CCCCCCCCO[C@H]1C[N+](C)(C)C[C@H]1OCCCCCCCC/C=C\C/C=C\CCCCC.[Cl-]` [Compound 21, (3R,4,5)-1,1-Dimethyl-3,4-bis((9Z,12Z)-octadec-9,12-dienyloxy)pyrrolidinium chloride], 112.4 nm; under `CCCCCCCC/C=C\CCCCCCCC(=O)O[C@@H]1C[N+](C)(C)C[C@H]1OC(=O)CCCCCCC/C=C\CCCCCCCC.[Cl-]` [Compound 23, (3R,4R)-1,1-Dimethyl-3,4-bis((Z)-octadec-9-enoyloxy)pyrrolidinium chloride], 108.7 nm.
With `CCCCC/C=C\C/C=C\CCCCCCCCO[C@@H]1CN(CC(O)CO)C[C@H]1OCCCCCCCC/C=C\C/C=C\CCCCC` (stereo partly drawn) [Compound 24, 3-((3R,4R)-3,4-bis((9Z,12Z)-Octadec-9,12-dienyloxy)pyrrolidin-1-yl) propane-1,2-diol] the figure was 160.7 nm; with `CCCCC/C=C\C/C=C\CCCCCCCCO[C@@H]1CN(C(=O)CN(C)C)C[C@H]1OCCCCCCCC/C=C\C/C=C\CCCCC` [Compound 25, (3R,4R)-1-(2-(Dimethylamino)acetyl)-3,4-bis((9Z,12Z)-octadec-9,12-dienyloxy)pyrrolidine], 126.0 nm; with `CCCCC/C=C\C/C=C\CCCCCCCC(=O)O[C@@H]1CN(C(=O)CN(C)C)C[C@H]1OC(=O)CCCCCCC/C=C\C/C=C\CCCCC` [Compound 26, (3R,4R)-1-(2-(Dimethylamino)acetyl)pyrrolidine-3,4-diyl di((9Z,12Z)-octadec-9,12-dienoate)], 133.9 nm.
For the compound `CCCCCCCC/C=C\CCCCCCCC(=O)O[C@@H]1CN(C(=O)CN(C)C)C[C@H]1OC(=O)CCCCCCC/C=C\CCCCCCCC` [Compound 27, (3R,4R)-1-(2-(Dimethylamino)acetyl)pyrrolidine-3,4-diyl di((Z)-octadec-9-enoate)], the “Particle diameter of Preparetion” value is listed as 135.2 nm.
With `CCCCC/C=C\C/C=C\CCCCCCCCO[C@@H]1CN(C(=O)CCN(C)C)C[C@H]1OCCCCCCCC/C=C\C/C=C\CCCCC` [Compound 28, (3R,4R)-1-(3-(Dimethylamino)propanoyl)-3,4-bis((9Z,12Z)-octadec-9,12-dienyloxy)pyrrolidine] the figure was 132.2 nm; with `CCCCC/C=C\C/C=C\CCCCCCCC(=O)O[C@@H]1CN(C(=O)CCN(C)C)C[C@H]1OC(=O)CCCCCCC/C=C\C/C=C\CCCCC` [Compound 29, (3R,4R)-1-(3-(dimethylamino)propanoyl)pyrrolidine-3,4-diyl di((9Z,12Z)-octadec-9,12-dienoate)], 122.5 nm.
With `CCCCCCCC/C=C\CCCCCCCC(=O)O[C@@H]1CN(C(=O)CCN(C)C)C[C@H]1OC(=O)CCCCCCC/C=C\CCCCCCCC` [Compound 30, (3R,4R)-1-(3-(Dimethylamino)propanoyl)pyrrolidine-3,4-diyl di((Z)-octadec-9-enoate)] the figure was 132.7 nm; with `CCCCC/C=C\C/C=C\CCCCCCCCO[C@@H]1CN(C(=O)[C@@H](N)CCCCN)C[C@H]1OCCCCCCCC/C=C\C/C=C\CCCCC` [Compound 31, (3R,4R)-1-((5)-2,6-Diaminohexanoyl)-3,4-bis((9Z,12Z)-octadec-9,12-dienyloxy)pyrrolidine], 100.7 nm; with `CCCCC/C=C\C/C=C\CCCCCCCCOCCN(C)CCOCCCCCCCC/C=C\C/C=C\CCCCC` [Compound 32, N-Methyl-N,N-bis(2-((9Z,12Z)-octadec-9,12-dienyloxy)ethyl)amine], 154.2 nm.
With `CCCCCCCC/C=C\CCCCCCCCOCCN(C)CCOCCCCCCCC/C=C\CCCCCCCC` [Compound 33, N-Methyl-N,N-bis(2-((Z)-octadec-9-enyloxy)ethyl)amine] the figure was 152.1 nm; with `CCCCCCCCCCCCCCOCCN(C)CCOCCCCCCCCCCCCCC` [Compound 34, N-Methyl-N,N-bis(2-(tetradecyloxy)ethyl)amine], 165.7 nm; with `CCCCCC/C=C\CCCCCCCCOCCN(C)CCOCCCCCCCC/C=C\CCCCCC` [Compound 35, N-Methyl-N,N-bis(2-((Z)-hexadec-9-enyloxy)ethyl)amine], 126.5 nm.
Turning to `CCCCCCCCCCC/C=C\CCCCCOCCN(C)CCOCCCCC/C=C\CCCCCCCCCCC` [Compound 36, N-Methyl-N,N-bis(2-((Z)-octadec-6-enyloxy)ethyl)amine], the “Particle diameter of Preparetion” value is recorded as 137.2 nm.
Turning to `CCCCCCCCCCCCCCCCCCOCCN(C)CCOCCCCCCCCCCCCCCCCCC` [Compound 37, N-Methyl-N,N-bis(2-(octadecyloxy)ethyl)amine], the “Particle diameter of Preparetion” value was 151.3 nm.
Take `CCCCCCCCCCCCCCCCO[C@@H]1CNC[C@H]1OCCCCCCCCCCCCCCCC` [Compound 38, (3R,4R)-3,4-bis(Hexadecyloxy)pyrrolidine]: the “Particle diameter of Preparetion” value is listed as 157.2 nm.
For `CCCCCCCCCCCCCCCCCCO[C@@H]1CNC[C@H]1OCCCCCCCCCCCCCCCCCC` [Compound 39, (3R,4R)-3,4-bis(Octadecyloxy)pyrrolidine], the “Particle diameter of Preparetion” value was 444.5 nm.
Under `CCCC/C=C\CCCCCCCCO[C@@H]1CNC[C@H]1OCCCCCCCC/C=C\CCCC` [Compound 40, (3R,4R)-3,4-bis((Z)-Tetradec-9-enyloxy)pyrrolidine] stands 133.8 nm; under `CCCCCC/C=C\CCCCCCCCCCO[C@@H]1CNC[C@H]1OCCCCCCCCCC/C=C\CCCCCC` [Compound 41, (3R,4R)-3,4-bis((Z)-Octadec-11-enyloxy)pyrrolidine], 134.4 nm.
With `CCCCCCCC/C=C\CCCCCCCCCCO[C@@H]1CNC[C@H]1OCCCCCCCCCC/C=C\CCCCCCCC` [Compound 42, (3R,4R)-3,4-bis((Z)-Icos-11-enyloxy)pyrrolidine], the “Particle diameter of Preparetion” value worked out at 131.3 nm.
